# Experimental data from patent EP1501797B1, “3-(SUBSTITUTED AMINO)-1H-INDOLE-2-CARBOXYLIC ACID ESTER AND 3-(SUBSTITUTED AMINO)-BENZO[B]THIOPHENE-2-CARBOXYLIC ACID ESTER DERIVATIVES AS INTERLEUKIN-4 GENE EXPRESSION INHIBITORS” (Aventis Pharmaceuticals Inc., priority 2002, dated 2003).
# Like-named read-outs stand apart in the source and are kept apart here.
# How the values were obtained:
# Type in all cases: cell-based
# [1] = system: Human Th2 cells; assay: Human primary Th2 cells, proliferation (viability, MTS assay); details: Human primary Th2 cells; combined data from 10 different experiments; read-out: Prol. IC50
# [2] = system: Human primary Th1 cells; assay: Human primary Th1 (NYTh1) cells, proliferation (MTS assay); details: data from 8 different experiments combined
# Experimental: Briefly, CD4^+CD45RA^+ T cells, isolated from donor peripheral blood mononuclear cells of healthy donors, are educated in the presence of anti-CD3/CD28 antibodies and various growth factors to obtain either a Thl-like or Th2-like phenotypes as determined by the known cytokine profiles of these two cell types.
# Generation of Th1/Th2 cells: Twenty four well plates are coated with 300 µL anti-CD3 Ab (10 µg/ml, in PBS 1-2 h at 37°C or overnight at 4°C), and washed two times with PBS. CD4^+/CD45RA^+ cells at a density of 10^6/ml in RPMI, is prepared and added to RPMI medium containing 10% Hyclone serum/ glutamine and 1-2 µg/ml anti-CD28 Ab. The cells are split in two aliquots. […] The degree of polarization is determined by intracellular staining of cells with anti-IFN-γ and anti-IL-4 antibodies from Pharmingen, and using flow cytometry from Becton Dickinson (BD), according to manufacturers description. […] For compound testing, large quantities of Th1 and Th2 cells derived from a given donor (NYTh1 and NYTh2) were expanded and frozen as aliquots in liquid nitrogen. […]
# Re-stimulation by allogeneic cells: Human PBMCs, to be used as alloantigens, are isolated from freshly drawn blood by Ficoll separation. […] Cells are counted and diluted to a final concentration of 2 x 10^6/ml in medium containing 10 µg/ml PHA and 200 units/ml IL-2. […]
# [3] = system: IL-4 mRNA; assay: Human Th2 IL-4 transcriptional assay (Taqman, GAPDH normalised); details: 18 hours, stimulated CD3/CD28 = 100%
# Experimental: RNAs were isolated from the harvested cells and analyzed for IL-4 message by Taqman. GAPDH message was used as an internal standard for normalization. The percent activity was calculated by treating the values from not drug treated, anti-CD3 and anti-CD28 stimulated Th2 cells as 100%. […] In the second experiment IL-4 protein levels were also determined by standard ELISA in culture supernatants as described earlier. […]
structure (smiles),measurement,setting,value
"O=C(O)c1[nH]c2ccccc2c1Nc1ccncc1 [Example 28, 3-(4-Pyridinylamino)-1H-indole-2-carboxylic acid]",IC50,[1],> 10 µM
same,IC50,[2],> 10 µM
same,mrna remaining at 10 µM,[3]; read-out: RNA Exp #1 % activity,44%
same,mrna remaining at 10 µM,[3]; read-out: RNA Exp #2 % activity,45%
